Laboratory results reported in patent US10253075B2, “WT1 antigenic polypeptide, and anti-tumor agent containing said polypeptide” (Tella, Inc., priority 2014, dated 2019).

What was measured:
Assay type in all cases: cell-based, human
[1] = test system: CD4-positive T cells and CD8-positive T cells; assay: Induction of antigen-specific T cells from PBMC, CD4 and CD8 taken together; details: for best peptide (%): CD4 + CD8, percentage of PBMCs in which the peptide was evaluated as best peptide
Method: (§1) From the blood that was donated from 6 healthy human volunteers, human peripheral blood mononuclear cells (PBMC) were separated using a Ficoll-Paque (manufactured by Amersham Bioscience Inc.). The separated PBMC was cultured at 37° C. for 1 hour in a cell culture flask (manufactured by ED Biosciences) in a CO2 incubator using a serum-free AIM-V medium, thereby to remove non-adherent cells. Then, adherent cells remaining on the flask were started to culture in the AIM-V medium in the presence of a recombinant GM-CSF (10 ng/ml, manufactured by Wako Company) and a recombinant IL-4 (10 ng/ml, manufactured by Wako Company). After 3 days from the start of culture, the medium was replaced by an AIM-V medium supplemented with GM-CSF and IL-4, and dendritic cells (DC) were recovered using trypsin after 7 days from the start of culture. These DCs were used as antigen-presenting cells (APC) in the induction of antigen-specific T cells or in the analysis of antigen-specific cytokine (IFN-γ) production from T cells.
(§2) The foregoing PBMCs separated from healthy human volunteers were seeded to a density of 2×10^6 cells/well in a 24-well plate (manufactured by BD Biosciences). Then, culturing the cells were started in an AIM-V medium (1 ml/well) supplemented with each polypeptide (5 μM) derived from the WT1 protein described above inducing antigen-specific T cells, and serum at 37° C. in a CO2 incubator.
(§3) After 7 days from the start of culture, the above DC (autologous DC) was added to PBMC having the same derivation. Further, the medium was replaced with a serum-free AIM-V medium (manufactured by Life Technologies Inc.) supplemented with OK-432 (0.1 KE/ml, trade name: picibanil, manufactured by Chugai Pharmaceutical Co., Ltd.), and culture was performed for 2 hours. It should be noted that picibanil (OK-432) is a formulation obtained by treating an attenuated natural mutant strain (Su strain) of Group A Streptococcus with penicillin, and it is known that various cytokines (immune factor) are produced with use of picibanil to elicit an immune enhancing effect.
Then, after 2 hours of culture, the cells were treated for 50 minutes with addition of mitomycin C (MMC, manufactured by Kyowa Hakko Kirin Co., Ltd.). Furthermore, co-culture was performed in an AIM-V medium containing autologous DC and 5% human AB serum in which T cells are inactivated (Hokkaido Red Cross Center) in the presence of each polypeptide (5 μM) for inducing the antigen-specific T cells, thereby to re-stimulate the T cells. Two days later, a recombinant IL-2 (manufactured by Shionogi Pharmaceutical Institute Co., Ltd.) was added thereto to a final concentration of 10 U/ml. […]

[2] = test system: CD4-positive T cells (Th cells); assay: Induction of antigen-specific Th cells from PBMC; IFN-γ intracellular staining (ICS); parameters: key to induction of antigen-specific T cells: The symbol “+” in Table 7 indicates that the induction of antigen-specific T cells was observed; the symbol “−” indicates that the induction of antigen-specific T cells was not observed; details: for best peptide (%) / induction efficiency (%): CD4; for best peptide (%): percentage of the 6 kinds of PBMCs in which the peptide was evaluated as best peptide; for induction efficiency (%): proportion of the 6 kinds of donor PBMCs induced to antigen-specific T cells; for induction of antigen-specific T cells: induced T cell CD4, polypeptide 5 μM, IFN-γ-producing cells, day 21; for best peptide: highest ratio of antigen-specific IFN-γ-producing cells
Method: as §1, §2, §3
(§4) Then, after 2 hours of culture, the cells were treated for 50 minutes with addition of mitomycin C (MMC, manufactured by Kyowa Hakko Kirin Co., Ltd.). Furthermore, co-culture was performed in an AIM-V medium containing autologous DC and 5% human AB serum in which T cells are inactivated (Hokkaido Red Cross Center) in the presence of each polypeptide (5 μM) for inducing the antigen-specific T cells, thereby to re-stimulate the T cells. Two days later, a recombinant IL-2 (manufactured by Shionogi Pharmaceutical Institute Co., Ltd.) was added thereto to a final concentration of 10 U/ml. After 14 days from the start of co-culture, the autologous DC was pulsed with each polypeptide (5 μM) for inducing the antigen-specific T cells for 2 hours, and then treated with MMC. Such MMC treated cells as APC were used for re-stimulating T cells. In addition, on or after 14 days from the start of co-culture, culture was performed at the concentration of 20 U/ml of recombinant IL-2. After that, T cells on day 21 of the co-culture were collected by centrifugation or the like and subjected to an analysis of antigen-specific reactivity shown below.
(§5) T cells that were induced as described above (T cells on day 21 of the co-culture) and autologous DCs were seeded in the same well of a 96-well plate (manufactured by BD Biosciences) to a density of 5×10^4 cells/well and 5×10^3 cells/well, respectively. Then, the cells were cultured in the presence of each polypeptide (HE 4, KE 1, KE 5, H/K-HELP 1, H/K-HELP 2 or H/K-HELP 3) (5 μM) for the analysis of antigen-specific reactivity. In addition, a group without addition of such polypeptide was prepared as a control group. […]

[3] = test system: CD8-positive T cells (CTL); assay: Induction of antigen-specific CTL from PBMC; IFN-γ intracellular staining (ICS); parameters: key to induction of antigen-specific T cells: The symbol “+” in Table 7 indicates that the induction of antigen-specific T cells was observed; the symbol “−” indicates that the induction of antigen-specific T cells was not observed; details: for best peptide (%) / induction efficiency (%): CD8; for best peptide (%): percentage of the 6 kinds of PBMCs in which the peptide was evaluated as best peptide; for induction efficiency (%): proportion of the 6 kinds of donor PBMCs induced to antigen-specific T cells; for best peptide: highest ratio of antigen-specific IFN-γ-producing cells; for induction of antigen-specific T cells: induced T cell CD8, polypeptide 5 μM, IFN-γ-producing cells, day 21
Method: as §1, §2, §3, §4, §5

KRYFKLSHLQMHSRKHGGGGGRMFPNAPYLGGGGGCYTWNQMNL (Fusion polypeptide in which HE4, 5-Glycine linker, KE1, 5-Glycine linker and KE5 are fused in this order from the N-terminal) [H/K-HELP2, fused polypeptide: HE 4, KE 1 and KE 5 from the N-terminus with five-glycine linkers]
best peptide (%) [1]: 33.33%
best peptide (%) [2]: 33.33%
induction efficiency (%) [2]: 50.00%
induction of antigen-specific T cells ([2]; donor 1 PBMC): −
best peptide ([2]; donor 2, CD4): H/K-HELP2
induction of antigen-specific T cells ([2]; donor 2 PBMC): +
best peptide ([2]; donor 3, CD4): H/K-HELP2
induction of antigen-specific T cells ([2]; donor 3 PBMC): +
induction of antigen-specific T cells ([2]; donor 4 PBMC): −
induction of antigen-specific T cells ([2]; donor 5 PBMC): +
induction of antigen-specific T cells ([2]; donor 6 PBMC): −
best peptide (%) [3]: 33.33%
induction efficiency (%) [3]: 50.00%
best peptide ([3]; donor 1, CD8): H/K-HELP2
induction of antigen-specific T cells ([3]; donor 1 PBMC): +
induction of antigen-specific T cells ([3]; donor 2 PBMC): −
induction of antigen-specific T cells ([3]; donor 3 PBMC): +
induction of antigen-specific T cells ([3]; donor 4 PBMC): −
induction of antigen-specific T cells ([3]; donor 5 PBMC): −
best peptide ([3]; donor 6, CD8): H/K-HELP2
induction of antigen-specific T cells ([3]; donor 6 PBMC): +

RMFPNAPYLGGGGGKRYFKLSHLQMHSRKHGGGGGCYTWNQMNL (Fusion polypeptide in which KE1, 5-Glycine linker, HE4, 5-Glycine linker and KE5 are fused in this order from the N-terminal) [H/K-HELP3, fused polypeptide: KE 1, HE 4 and KE 5 from the N-terminus with five-glycine linkers]
best peptide (%) [1]: 50.00%
best peptide (%) [2]: 50.00%
induction efficiency (%) [2]: 66.67%
stimulation of CD4-positive T cells of different derivation to induce IFN-γ-producing Th1 cells, comparison in words ([2]; compared with Example 1, 6 donors): more numerous CD4-positive T cells of different derivation are stimulated, as compared to Example 1
best peptide ([2]; donor 1, CD4): H/K-HELP3
induction of antigen-specific T cells ([2]; donor 1 PBMC): +
induction of antigen-specific T cells ([2]; donor 2 PBMC): −
induction of antigen-specific T cells ([2]; donor 3 PBMC): +
best peptide ([2]; donor 4, CD4): H/K-HELP3
induction of antigen-specific T cells ([2]; donor 4 PBMC): +
best peptide ([2]; donor 5, CD4): H/K-HELP3
induction of antigen-specific T cells ([2]; donor 5 PBMC): +
induction of antigen-specific T cells ([2]; donor 6 PBMC): −
best peptide (%) [3]: 50.00%
induction efficiency (%) [3]: 50.00%
induction of antigen-specific T cells ([3]; donor 1 PBMC): −
induction of antigen-specific T cells ([3]; donor 2 PBMC): −
best peptide ([3]; donor 3, CD8): H/K-HELP3
induction of antigen-specific T cells ([3]; donor 3 PBMC): +
best peptide ([3]; donor 4, CD8): H/K-HELP3
induction of antigen-specific T cells ([3]; donor 4 PBMC): +
best peptide ([3]; donor 5, CD8): H/K-HELP3
induction of antigen-specific T cells ([3]; donor 5 PBMC): +
induction of antigen-specific T cells ([3]; donor 6 PBMC): −

KRYFKLSHLQMHSRKHGGGGGRMFPNAPYL (Fusion polypeptide in which HE4, 5-Glycine linker and KE1 are fused in this order from the N-terminal) [H/K-HELP1, fused polypeptide: HE4, five-glycine linker, KE1 from the N-terminus]
best peptide (%) [1]: 0.00%
activity of inducing antigen-specific T cells in CD4-positive and CD8-positive T cells, comparison in words ([1]; compared with Comparative Example 1 (mix of the epitopes), 6 donors): not different from those of Comparative Example 1
best peptide (%) [2]: 0.00%
induction efficiency (%) [2]: 33.33%
induction of antigen-specific T cells ([2]; donor 1 PBMC): +
induction of antigen-specific T cells ([2]; donor 2 PBMC): −
induction of antigen-specific T cells ([2]; donor 3 PBMC): −
induction of antigen-specific T cells ([2]; donor 4 PBMC): −
induction of antigen-specific T cells ([2]; donor 5 PBMC): +
induction of antigen-specific T cells ([2]; donor 6 PBMC): −
best peptide (%) [3]: 0.00%
induction efficiency (%) [3]: 16.67%
induction of antigen-specific T cells ([3]; donor 1 PBMC): −
induction of antigen-specific T cells ([3]; donor 2 PBMC): −
induction of antigen-specific T cells ([3]; donor 3 PBMC): −
induction of antigen-specific T cells ([3]; donor 4 PBMC): −
induction of antigen-specific T cells ([3]; donor 5 PBMC): +
induction of antigen-specific T cells ([3]; donor 6 PBMC): −
